Counter-ions that a name gives are not always drawn.
Key:
[1] = biological target: T1, human GST-p38 kinase alpha (Homo sapiens, UniProt Q16539); assay: p38 kinase in vitro assay, second format, phosphorylation of EGFRP with 33P-ATP; format: biochemical; conditions: Table 10, 10% DMSO; @ 1.0 hour; read-out: p38α Kinase Assay IC50
T1 construct: The coding region of the human p38a cDNA was obtained by PCR-amplification from RNA isolated from the human monocyte cell line THP.1; made in house; host or cells: E. coli DH10B
T1 sequence (Q16539 whole entry): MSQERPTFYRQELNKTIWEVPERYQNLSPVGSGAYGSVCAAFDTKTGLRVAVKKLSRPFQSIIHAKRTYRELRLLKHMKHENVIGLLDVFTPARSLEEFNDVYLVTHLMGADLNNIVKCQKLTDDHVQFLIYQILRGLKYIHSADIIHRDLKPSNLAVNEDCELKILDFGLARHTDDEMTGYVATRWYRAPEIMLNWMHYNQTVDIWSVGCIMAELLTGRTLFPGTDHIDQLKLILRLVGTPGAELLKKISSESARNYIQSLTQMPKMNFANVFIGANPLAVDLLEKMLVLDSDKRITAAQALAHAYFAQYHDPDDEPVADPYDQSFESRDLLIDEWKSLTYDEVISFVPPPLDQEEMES
Procedure, shortened: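 Activated human GST-p38α (pre-activated with GST-MKK6, 1 h, 30 °C) phosphorylates EGFR 21-mer peptide (200 μM) with 50 μM ATP plus γ-33P-ATP, pH 7.5, 60 min at room temperature. Unreacted ATP removed by AG 1×8 resin; supernatant scintillation-counted.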

human TNF = assay: TNF inhibition: human whole blood assay; format: cell-based; conditions: Homo sapiens, Table 10, human whole blood, LPS; read-out: TNF Inhibition-Human Whole Blood Assay
TNF-α = assay: Rat assay: LPS-challenged rats, serum TNF-α by ELISA; format: in vivo; conditions: Rattus norvegicus, po

| melting point | SMILES | also measured |
| --- | --- | --- |
| 204 to 206 °C | Fc1ccc(-c2[nH]nc(N3CCNCC3)c2-c2ccncc2)cc1 (as salt: hydrochloride) [Example A-172, 1-[5-(4-fluorophenyl)-4-(4-pyridinyl)-1H-pyrazol-3-yl]piperazine trihydrochloride] |  |
| 260 to 261 °C | CN1CCC(N(C)c2[nH]nc(-c3ccc(Cl)cc3)c2-c2ccncc2)CC1 (hydrate or solvate) |  |
| 262 to 264 °C | CN1CCN(c2[nH]nc(-c3ccc(F)cc3)c2-c2ccncc2)CC1 (hydrate or solvate) [Example A-317, 1-[5-(4-fluorophenyl)-4-(4-pyridinyl)-1H-pyrazol-3-yl]-4-methylpiperazine, dihydrate] |  |
| 245 to 248 °C | CS(=O)(=O)N1CCN(c2[nH]nc(-c3ccc(Cl)cc3)c2-c2ccncc2)CC1 (hydrate or solvate) [Example A-320, 1-[5-(4-chlorophenyl)-4-(4-pyridinyl)-1H-pyrazol-3-yl]-4-(methylsulfonyl)piperazine, monohydrate] |  |
| 88.6 °C | Cc1nn(C)c(-c2ccc(Cl)cc2)c1-c1ccncc1 [Example A-32, 4-[5-(4-chlorophenyl)-1,3-dimethyl-1H-pyrazol-4-yl]pyridine] |  |
| 260 to 261 °C | CCN(CC)c1n[nH]c(-c2ccc(Cl)cc2)c1-c1ccncc1 [Example A-163, 5-(4-chlorophenyl)-N,N-diethyl-4-(4-pyridinyl)-1H-pyrazol-3-amine] |  |
| 243 to 244 °C | CC(C)(C)OC(=O)N1CCN(c2n[nH]c(-c3ccc(F)cc3)c2-c2ccncc2)CC1 [Example A-171, 1,1-dimethylethyl 4-[5-(4-fluorophenyl)-4-(4-pyridinyl)-1H-pyrazol-3-yl]-1-piperazinecarboxylate] |  |
| 236.67 °C | Cc1n[nH]c(-c2c(F)cccc2F)c1-c1ccncc1 [Example A-184, 4-[3-(2,6-difluorophenyl)-5-methyl-1H-pyrazol-4-yl]pyridine] |  |
| 189.25 °C | CCc1cccc(-c2[nH]nc(C)c2-c2ccncc2)c1 [Example A-185, 4-[3-(3-ethylphenyl)-5-methyl-1H-pyrazol-4-yl]pyridine] |  |
| 192.66 °C | CCc1cccc(-c2[nH]nc(CC)c2-c2ccncc2)c1 [Example A-187, 4-[3-ethyl-5-(3-ethylphenyl)-1H-pyrazol-4-yl]pyridine] |  |
| 281.94 °C | Fc1ccc(-c2[nH]nc(C(F)(F)F)c2-c2ccncc2)cc1 [Example A-190] |  |
| 129 to 130 °C | Cn1nc(-c2ccc(F)cc2)c(-c2ccncc2)c1C1CC1 [Example A-191] |  |
| 155 to 157 °C | OCCn1nc(-c2ccc(F)cc2)c(-c2ccncc2)c1C1CC1 [Example A-192, 5-cyclopropyl-3-(4-fluorophenyl)-4-(4-pyridinyl)-1H-pyrazole-1-ethanol] |  |
| 168 to 169 °C | COc1cc(-c2c(-c3ccncc3)c(-c3ccc(F)cc3)nn2CCO)ccn1 [Example A-193, 3-(4-fluorophenyl)-5-(2-methoxy-4-pyridinyl)-4-(4-pyridinyl)-1H-pyrazole-1-ethanol] |  |
| 250 to 251 °C | O=c1cc(-c2c(-c3ccncc3)c(-c3ccc(F)cc3)nn2CCO)cc[nH]1 [Example A-194, 4-[3-(4-fluorophenyl)-1-(2-hydroxyethyl)-4-(4-pyridinyl)-1H-pyrazol-5-yl]-2(1H)-pyridinone] |  |
| 220 to 221 °C | CC(=O)n1ccc(-c2c(-c3ccncc3)c(-c3ccc(F)cc3)nn2CCO)cc1=O [Example A-195, 1-acetyl-4-[3-(4-fluorophenyl)-1-(2-hydroxyethyl)-4-(4-pyridinyl)-1H-pyrazol-5-yl]-2(1H)-pyridinone] |  |
| 253 to 255 °C | O=C(O)C1CC1c1c(-c2ccncc2)c(-c2ccc(F)cc2)nn1CCO (centres unmarked) [Example A-197, 2-[3-(4-fluorophenyl)-1-(2-hydroxyethyl)-4-(4-pyridinyl)-1H-pyrazol-5-yl]cyclopropanecarboxylic acid] |  |
| 227 to 228 °C | OCCn1nc(-c2ccc(F)cc2)c(-c2ccncc2)c1-c1cnc[nH]1 [Example A-198, 3-(4-fluorophenyl)-5-(4-imidazolyl)-4-(4-pyridinyl)-1H-pyrazole-1-ethanol] |  |

| melting point | SMILES | also measured |
| --- | --- | --- |
| 198.17 °C | Cc1cc(-c2n[nH]cc2-c2ccncc2)ccc1Cl [Example A-199, 4-[3-(4-chloro-3-methylphenyl)-1H-pyrazol-yl]pyridine] |  |
| 82 to 88 °C | Cc1c(-c2ccncc2)c(-c2ccc(Cl)cc2)nn1C [Example A-204, 4-[3-(4-chlorophenyl)-1,5-dimethyl-1H-pyrazol-4-yl]pyridine] |  |
| 164.36 °C | CCn1nc(-c2ccc(Cl)cc2)c(-c2ccncc2)c1C [Example A-206, 4-[3-(4-chlorophenyl)-1-ethyl-5-methyl-1H-pyrazol-4-yl]pyridine] |  |
| 208.46 °C | Clc1ccccc1-c1[nH]ncc1-c1ccncc1 [Example A-209, 4-[3-(2-chlorophenyl)-1H-pyrazol-4-yl]pyridine] |  |
| 163 to 164 °C | NNc1cc(-c2c[nH]nc2-c2cccc(Cl)c2)ccn1 [Example A-219, 4-[3-(3-chlorophenyl)-1H-pyrazol-4-yl]-2(1H)-pyridinone hydrazone] |  |
| 179 to 180 °C | Clc1cccc(-c2n[nH]cc2-c2ccnc(NCc3ccccc3)c2)c1 [Example A-220, 4-[3-(3-chlorophenyl)-1H-pyrazol-4-yl]-N-(phenylmethyl)-2-pyridinamine] |  |
| 185 to 186 °C | Clc1cccc(-c2n[nH]cc2-c2ccnc(NCCc3ccccc3)c2)c1 [Example A-221, 4-[3-(3-chlorophenyl)-1H-pyrazol-4-yl]-N-(phenylethyl)-2-pyridinamine] |  |
| 186 to 187 °C | CCNc1cc(-c2c[nH]nc2-c2cccc(Cl)c2)ccn1 [Example A-222, 4-[3-(3-chlorophenyl)-1H-pyrazol-4-yl]-N-ethyl-2-pyridinamine] |  |
| 230 to 231 °C | NC(=O)c1cc(-c2cn[nH]c2-c2ccc(F)cc2)ccn1 [Example A-223, 4-[3-(4-fluorophenyl)-1H-pyrazol-4-yl]-2-pyridinecarboxamide] |  |
| 239 to 241 °C | COC(=O)c1cc(-c2c[nH]nc2-c2ccc(F)cc2)ccn1 [Example A-224, Methyl 4-[3-(4-fluorophenyl)-1H-pyrazol-4-yl]-2-pyridinecarboxylate] |  |
| 88 to 89 °C | CNC(=O)c1cc(-c2cn[nH]c2-c2ccc(F)cc2)ccn1 [Example A-225, 4-[3-(4-fluorophenyl)-1H-pyrazol-4-yl]-N-methyl-2-pyridinecarboxamide] |  |
| 204 to 205 °C | Fc1ccc(-c2n[nH]cc2-c2ccnc(Cl)n2)cc1 [Example A-299, 2-Chloro-4-[3-(4-fluorophenyl)-1H-pyrazol-4-yl]pyrimidine] |  |
| 149 to 150 °C | NNc1nccc(-c2cn[nH]c2-c2ccc(F)cc2)n1 [Example A-300, 4-[3-(4-fluorophenyl)-1H-pyrazol-4-yl]-2(1H)-pyrimidinone hydrazone] |  |
| 155 to 156 °C | CN(C)c1nccc(-c2cn[nH]c2-c2ccc(F)cc2)n1 [Example A-301, 4-[3-(4-fluorophenyl)-1H-pyrazol-4-yl]-N,N-dimethyl-2-pyrimidinamine] |  |
| 217 to 218 °C | CNc1nccc(-c2c[nH]nc2-c2ccc(F)cc2)n1 [Example A-302, 4-[3-(4-fluorophenyl)-1H-pyrazol-4-yl]-N-methyl-2-pyrimidinamine] |  |
| 216 to 217 °C | Fc1ccc(-c2n[nH]cc2-c2ccnc(NCc3ccccc3)n2)cc1 [Example A-303, 4-[3-(4-fluorophenyl)-1H-pyrazol-4-yl]-N-(phenylmethyl)-2-pyrimidinamine] |  |
| 203 to 204 °C | Fc1ccc(-c2[nH]ncc2-c2ccnc(NC3CC3)n2)cc1 [Example A-304, N-cyclopropyl-4-[3-(4-fluorophenyl)-1H-pyrazol-4-yl]-2-pyrimidinamine] |  |
|  | Clc1ccc(-c2n[nH]c(OC3CCNCC3)c2-c2ccncc2)cc1 [Example A-442] | IC50 [1]: 22 nM; IC50 (human TNF): 160 nM; inhibition in vivo at 1 mg/kg (TNF-α; Table 10, dose 1.0 mg/kg, read-out: Rat LPS Assay % Inhibition): 51%; inhibition in vivo at 5 mg/kg (TNF-α; Table 10, dose 5.0 mg/kg, read-out: Rat LPS Assay % Inhibition): 56%; inhibition in vivo at 20 mg/kg (TNF-α; Table 10, dose 20.0 mg/kg): 92% |

| SMILES | melting point | also measured |
| --- | --- | --- |
| C#CCn1nc(N2CCNCC2)c(-c2ccncc2)c1-c1ccc(Cl)cc1 (as salt: hydrochloride) (hydrate or solvate) [Example A-318, 1-[5-(4-chlorophenyl)-4-(4-pyridinyl)-1-(2-propynyl)-1H-pyrazol-3-yl]piperazine, trihydrochloride monohydrate] | 231 to 233 °C (dec.) |  |
| CN1CCN(c2n[nH]c(-c3ccc(F)cc3)c2-c2ccncc2)CC1.O.O (hydrate or solvate) | 238 to 240 °C |  |
| O.O.O=C(O)CCC(=O)N1CCN(c2n[nH]c(-c3ccc(Cl)cc3)c2-c2ccncc2)CC1 (hydrate or solvate) [A-321 (dihydrate), 4-[5-(4-chlorophenyl)-4-(4-pyridinyl)-1H-pyrazol-3-yl]-γ-oxo-1-piperazinebutanoic acid, dihydrate] | 281 to 283 °C (dec.) |  |
| COC(=O)N1CCN(c2[nH]nc(-c3ccc(Cl)cc3)c2-c2ccncc2)CC1 (hydrate or solvate) [Example A-319, methyl 4-[5-(4-chlorophenyl)-4-(4-pyridinyl)-1H-pyrazol-3-yl]-1-piperazinecarboxylate, monohydrate] | 264 to 265 °C |  |
